From patent US20200390100A1, “SUBSTITUTED N-HETEROCYCLYL- AND N-HETEROARYL-TETRAHYDROPYRIMIDINONES AND THE SALTS THEREOF, AND THE USE OF SAME AS HERBICIDAL ACTIVE SUBSTANCES” (Bayer Aktiengesellschaft, priority 2017, published 2020)

Assays:
Abutilon theophrasti [1] = test: Post-emergence herbicidal action, greenhouse, 320 g/ha; type: in vivo; conditions: application rate 320 g/ha, rated visually after about 3 weeks vs untreated controls
Procedure: (§1) Seeds of monocotyledonous and dicotyledonous weeds and crop plants were placed in sandy loam in plastic or wood-fiber pots, covered with soil and cultivated in a greenhouse under controlled growth conditions. 2 to 3 weeks after sowing, the test plants were treated at the one-leaf stage. The compounds of the invention, formulated in the form of wettable powders (WP) or as emulsion concentrates (EC), were then sprayed onto the green parts of the plants as aqueous suspension or emulsion with addition of 0.5% additive at a water application rate of […] (converted). After the test plants had been kept in the greenhouse under optimum growth conditions for about 3 weeks, the activity of the preparations was rated visually in comparison to untreated controls. For example, 100% activity=the plants have died, 0% activity=like control plants. Tables A1 to A14 below show the effects of selected compounds of the general formula (I) according to Tables 1.1 to 1.150 on various harmful plants and at an application rate corresponding to 320 g/ha, which were obtained by the experimental procedure mentioned above.

Amaranthus retroflexus [2] = test: as above; type: in vivo; conditions: application rate 320 g/ha, rated visually after about 3 weeks vs untreated controls
Procedure: as §1

Pharbitis purpurea [3] = test: as above; type: in vivo; conditions: application rate 320 g/ha, rated visually after about 3 weeks vs untreated controls
Procedure: as §1

Abutilon theophrasti [4] = test: Herbicidal pre-emergence action (Part 2), 1280 g/ha; type: in vivo; conditions: application rate 1280 g/ha, scored visually after about 3 weeks, Table D5
Procedure, shortened: (§2)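 Surface soil treatment over sown weed seeds in sandy loam used formulated compound in water with 0.5% additive at a 600 L/ha spray volume. Effect was rated visually in percent versus untreated plants after about three weeks of greenhouse growth.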

Amaranthus retroflexus [5] = test: as above; type: in vivo; conditions: application rate 1280 g/ha, scored visually after about 3 weeks, Table D6
Procedure, shortened: as §2

Echinochloa crus-galli [6] = test: as above; type: in vivo; conditions: application rate 1280 g/ha, scored visually after about 3 weeks, Table D1
Procedure, shortened: as §2

Lolium rigidum = test: as above; type: in vivo; conditions: application rate 1280 g/ha, scored visually after about 3 weeks, Table D2
Procedure, shortened: as §2

Matricaria inodora [7] = test: as above; type: in vivo; conditions: application rate 1280 g/ha, scored visually after about 3 weeks, Table D7
Procedure, shortened: as §2

Poa annua [8] = test: as above; type: in vivo; conditions: application rate 1280 g/ha, scored visually after about 3 weeks, Table D3
Procedure, shortened: as §2

Setaria viridis [9] = test: as above; type: in vivo; conditions: application rate 1280 g/ha, scored visually after about 3 weeks, Table D4
Procedure, shortened: as §2

Stellaria media [10] = test: as above; type: in vivo; conditions: application rate 1280 g/ha, scored visually after about 3 weeks, Table D8
Procedure, shortened: as §2

Abutilon theophrasti [11] = test: Pre-emergence herbicidal action, greenhouse, 320 g/ha; type: in vivo; conditions: application rate 320 g/ha, scored visually after about 3 weeks vs untreated controls
Procedure, shortened: (§3)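 Sow seeds in soil-filled pots, cover. Spray compound (WP/EC, aqueous, +0.5% additive) on covering soil. Hold under good growth conditions ~3 wk. Score % effect visually vs untreated.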

Alopecurus myosuroides = test: as above; type: in vivo; conditions: application rate 320 g/ha, scored visually after about 3 weeks vs untreated controls
Procedure, shortened: as §3

Amaranthus retroflexus [12] = test: as above; type: in vivo; conditions: application rate 320 g/ha, scored visually after about 3 weeks vs untreated controls
Procedure, shortened: as §3

Avena fatua = test: as above; type: in vivo; conditions: application rate 320 g/ha, scored visually after about 3 weeks vs untreated controls
Procedure, shortened: as §3

Echinochloa crus-galli [13] = test: as above; type: in vivo; conditions: application rate 320 g/ha, scored visually after about 3 weeks vs untreated controls
Procedure, shortened: as §3

Hordeum murinum = test: as above; type: in vivo; conditions: application rate 320 g/ha, Table B14
Procedure, shortened: as §3

Matricaria inodora [14] = test: as above; type: in vivo; conditions: application rate 320 g/ha, scored visually after about 3 weeks vs untreated controls
Procedure, shortened: as §3

Pharbitis purpurea [15] = test: as above; type: in vivo; conditions: application rate 320 g/ha, Table B12
Procedure, shortened: as §3

Polygonum convolvulus = test: as above; type: in vivo; conditions: application rate 320 g/ha, scored visually after about 3 weeks vs untreated controls
Procedure, shortened: as §3

Setaria viridis [16] = test: as above; type: in vivo; conditions: application rate 320 g/ha, Table B11
Procedure, shortened: as §3

Stellaria media [17] = test: as above; type: in vivo; conditions: application rate 320 g/ha, scored visually after about 3 weeks vs untreated controls
Procedure, shortened: as §3

Viola tricolor = test: as above; type: in vivo; conditions: application rate 320 g/ha, Table B8
Procedure, shortened: as §3

photosystem II (PS II) = target: T1, photosystem II (PS II) (Spinacia oleracea, UniProt P69560); test: Measurement of PS II activity in thylakoid membranes (DCPIP reduction); type: biochemical, spinach; conditions: PS II activity in spinach thylakoid membranes, Table E1; read-out: Effect
T1 construct: the chloroplasts were osmotically ruptured and the thylakoid membranes were then obtained by centrifugation; from tissue; host or cells: fresh spinach leaves; thylakoid membrane preparation from isolated chloroplasts
Procedure: Cooled fresh spinach leaves were comminuted and homogenized in 50 mM phosphate buffer, pH 6.8. 10 mM KCl, 0.34 M sucrose (sucrose buffer) (blender, 1 g of plant material/ml). The homogenate was subsequently filtered through 4 layers of Miracloth and the chloroplasts were isolated by centrifugation, i.e. 10 min of centrifugation at 4400×g (4° C.). The sediment was suspended in 25 ml of sucrose buffer and re-centrifuged for 10 min at 4400×g (4° C.). The sediment was then suspended in 40 ml of 50 mM phosphate buffer, pH 6.8, 10 mM KCl, without sucrose. In this step, the chloroplasts were osmotically ruptured and the thylakoid membranes were then obtained by centrifugation (10 min, 4400×g, 4° C.). The membrane sediment was finally suspended in about 20 ml of 50 mM phosphate buffer, pH 6.8, 10 mM KCl. Following protein determination and activity determination, the membrane suspension was divided into aliquots and frozen in liquid nitrogen. The aliquots were stored at −80° C. Under these conditions, the photosystem II preparation was storage stable for at least three months. The activity determination of photosystem II (PS II) was then carried out using the following test principle: The electron transfer from PS II to an artificial electron acceptor, 2,6-dichlorophenolindophenol (DCPIP), was measured with exposure to light. The concentration of the blue oxidized form of DCPIP was determined spectrophotometrically at wavelength λ=595 nm. […] The activity determination is carried out in microtiter plates (96 cavities) in a reaction volume of 200 μl. Here, 155 μl of dilute membrane suspension were initially charged in 50 mM of phosphate buffer, pH 6.8, 10 mM KCl. Depending on the activity of the PS II preparation, the dilution was adjusted such that the measurement of the decrease in absorption (λ=595 nm) was linear for at least 10 min. In each case 5 μl solutions of the test compounds of a concentration of 100 μM in DMSO were added to the enzyme suspension; controls contained 5 μl of DMSO; the final concentration of DMSO in the reaction batch was thus 2.5% (v/v); this concentration had no adverse effect on the enzymatic activity. On each microtiter plate, a known PS II inhibitor, for example metribuzin, was used as standard, which allowed the quality of the PS II test to be assessed. The reaction was started by addition of 40 μl DCPIP solution (600 μM in distilled water); the final concentration of DCPIP was 120 μM. Measurement of absorption is carried out over a period of 10 min at 22° C. and with exposure to light. Using metribuzin as comparative substance, the results for the efficacy of the compounds of the general formula (I) at 100 μM are stated in the table below using the following classification: ++++(inhibition≥90%), +++(90%>inhibition≥70%), ++(70%>inhibition≥50%), +(50%>inhibition≥30%).

Abutilon theophrasti [18] = test: Herbicidal post-emergence action (Part 2), 1280 g/ha; type: in vivo; conditions: application rate 1280 g/ha, rated visually after about 3 weeks, Table C4
Procedure, shortened: (§4)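 Plants at the one-leaf stage were treated on green parts with wettable powder or emulsion concentrate preparations diluted in water containing 0.5% additive. Effects were judged by eye after about 3 weeks in the greenhouse, relative to untreated plants.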

Amaranthus retroflexus [19] = test: as above; type: in vivo; conditions: application rate 1280 g/ha, rated visually after about 3 weeks, Table C5
Procedure, shortened: as §4

Matricaria inodora [20] = test: as above; type: in vivo; conditions: application rate 1280 g/ha, rated visually after about 3 weeks, Table C6
Procedure, shortened: as §4

Stellaria media [21] = test: as above; type: in vivo; conditions: application rate 1280 g/ha, rated visually after about 3 weeks, Table C7
Procedure, shortened: as §4

Poa annua [22] = test: as above; type: in vivo; conditions: application rate 1280 g/ha, rated visually after about 3 weeks, Table C2
Procedure, shortened: as §4

Echinochloa crus-galli [23] = test: as above; type: in vivo; conditions: post-emergence (Part 2), application rate 1280 g/ha, rated visually after about 3 weeks vs untreated controls
Procedure, shortened: as §4

Digitaria sanguinalis = test: Post-emergence herbicidal action, greenhouse, 320 g/ha; type: in vivo; conditions: application rate 320 g/ha, rated visually after about 3 weeks vs untreated controls
Procedure: as §1

Matricaria inodora [24] = test: as above; type: in vivo; conditions: application rate 320 g/ha, rated visually after about 3 weeks vs untreated controls
Procedure: as §1

Setaria viridis [25] = test: as above; type: in vivo; conditions: application rate 320 g/ha, rated visually after about 3 weeks vs untreated controls
Procedure: as §1

Stellaria media [26] = test: as above; type: in vivo; conditions: application rate 320 g/ha, rated visually after about 3 weeks vs untreated controls
Procedure: as §1

Row | SMILES | Abutilon theophrasti (Abutilon theophrasti [4]) [%] | Amaranthus retroflexus (Amaranthus retroflexus [5]) [%] | Echinochloa crus-galli (Echinochloa crus-galli [6]) [%] | Lolium rigidum (Lolium rigidum) [%] | Matricaria inodora (Matricaria inodora [7]) [%] | Poa Annua (Poa annua [8]) [%] | Setaria viridis (Setaria viridis [9]) [%] | Stellaria media (Stellaria media [10]) [%] | Abutilon theophrasti (Abutilon theophrasti [18]) [%] | Amaranthus retroflexus (Amaranthus retroflexus [19]) [%] | Matricaria inodora (Matricaria inodora [20]) [%] | Stellaria media (Stellaria media [21]) [%] | other results
1 | CC(C)(C)c1cc(N2C(=O)N3CCCC3CC2O)no1 (stereo not drawn) [I.121-162] | 100 | 100 | 100 | 90 | 100 | 100 | 100 | 100 |  |  |  |  | Abutilon theophrasti (efficacy in %) (Abutilon theophrasti [1]): 80%; Amaranthus retroflexus (efficacy in %) (Amaranthus retroflexus [2]): 100%; Pharbitis purpurea (efficacy in %) (Pharbitis purpurea [3]): 80%
2 | CN1CCC(O)N(c2cc(C(C)(C)C)on2)C1=O (stereo not drawn) [I.1-162, 3-(5-tert-Butyl-1,2-oxazol-3-yl)-4-hydroxy-1-methyltetrahydropyrimidin-2(1H)-one] |  |  |  |  |  |  |  |  |  |  |  |  | Abutilon theophrasti (efficacy in %) (Abutilon theophrasti [11]): 100%; Alopecurus myosuroides (efficacy in %) (Alopecurus myosuroides): 90%; Amaranthus retroflexus (efficacy in %) (Amaranthus retroflexus [12]): 100%; Avena fatua (efficacy in %) (Avena fatua): 90%; Echinochloa crus-galli (efficacy in %) (Echinochloa crus-galli [13]): 80%; Hordeum murinum (efficacy in %) (Hordeum murinum): 90%; Matricaria inodora (efficacy in %) (Matricaria inodora [14]): 100%; Pharbitis purpurea (efficacy in %) (Pharbitis purpurea [15]): 80%; Polygonum convolvulus (efficacy in %) (Polygonum convolvulus): 90%; Setaria viridis (efficacy in %) (Setaria viridis [16]): 90%; Stellaria media (efficacy in %) (Stellaria media [17]): 90%; Viola tricolor (efficacy in %) (Viola tricolor): 90%; inhibition at 100 µM (photosystem II (PS II)): > 90%
3 | CC(C)C(=O)OC1CCN(C)C(=O)N1c1cc(C(C)(C)C)no1 (stereo not drawn) [I.5-290, 3-(3-tert-Butyl-1,2-oxazol-5-yl)-1-methyl-2-oxohexahydropyrimidin-4-yl 2-methylpropanoate] | 100 | 100 | 90 |  | 90 | 90 | 90 | 100 | 100 | 100 | 100 | 100 | 
4 | CC(=O)OC1N(c2cc(C(C)(C)C)on2)C(=O)N(C)CC1(C)C (stereo not drawn) [I.62-162] | 100 | 100 | 90 |  | 100 | 100 | 100 | 100 | 100 | 100 | 100 |  | Poa Annua (Poa annua [22]): 100%
5 | CC(C)CC(=O)OC1CCN(C)C(=O)N1c1cc(C(C)(C)C)no1 (stereo not drawn) [I.7-290] | 100 | 100 |  |  | 100 | 90 |  | 100 | 100 | 100 |  |  | Echinochloa crus-galli (Echinochloa crus-galli [23]): 100%
6 | CC(=O)OC1CCN(C)C(=O)N1c1cc(C(F)(F)F)ccn1 (stereo not drawn) [I.2-449] |  | 100 |  | 90 | 100 | 100 |  | 100 |  | 100 |  | 100 | 
7 | CCCC(=O)OC1CC2CCCN2C(=O)N1c1cc(C(C)(C)C)on1 (stereo not drawn) [I.126-162] | 100 | 100 | 100 | 100 | 100 | 100 | 100 | 100 | 100 | 100 | 100 | 100 | Echinochloa crus-galli (Echinochloa crus-galli [23]): 90%; Poa Annua (Poa annua [22]): 100%
8 | CN1CC(F)(F)C(O)N(c2cc(C(C)(C)C)on2)C1=O (stereo not drawn) [I.141-162] |  |  |  |  |  |  |  |  |  |  |  |  | Abutilon theophrasti (efficacy in %) (Abutilon theophrasti [1]): 100%; Amaranthus retroflexus (efficacy in %) (Amaranthus retroflexus [2]): 90%; Digitaria sanguinalis (efficacy in %) (Digitaria sanguinalis): 100%; Matricaria inodora (efficacy in %) (Matricaria inodora [24]): 80%; Setaria viridis (efficacy in %) (Setaria viridis [25]): 100%; Stellaria media (efficacy in %) (Stellaria media [26]): 100%; Abutilon theophrasti (efficacy in %) (Abutilon theophrasti [11]): 90%; Amaranthus retroflexus (efficacy in %) (Amaranthus retroflexus [12]): 100%; Avena fatua (efficacy in %) (Avena fatua): 80%; Polygonum convolvulus (efficacy in %) (Polygonum convolvulus): 90%; Stellaria media (efficacy in %) (Stellaria media [17]): 100%; Viola tricolor (efficacy in %) (Viola tricolor): 90%
